Measurements as given in patent publication US12612380B2, “Non-lysosomal glucosylceramidase inhibitors and uses thereof” (ALECTOS THERAPEUTICS INC., priority 2019, dated 2026).
Read-outs that look alike come from different tables or passages of the source.

Key:
[1] = molecular target: T1, GBA2 (Homo sapiens, UniProt Q9HCG7); test: Binding specificity (selectivity) for GBA2 over other enzymes; format: biochemical; conditions: compared to a suitable reference compound, e.g. NB-DNJ (miglustat) or AMP-DNM
T1 sequence (Q9HCG7 1-927): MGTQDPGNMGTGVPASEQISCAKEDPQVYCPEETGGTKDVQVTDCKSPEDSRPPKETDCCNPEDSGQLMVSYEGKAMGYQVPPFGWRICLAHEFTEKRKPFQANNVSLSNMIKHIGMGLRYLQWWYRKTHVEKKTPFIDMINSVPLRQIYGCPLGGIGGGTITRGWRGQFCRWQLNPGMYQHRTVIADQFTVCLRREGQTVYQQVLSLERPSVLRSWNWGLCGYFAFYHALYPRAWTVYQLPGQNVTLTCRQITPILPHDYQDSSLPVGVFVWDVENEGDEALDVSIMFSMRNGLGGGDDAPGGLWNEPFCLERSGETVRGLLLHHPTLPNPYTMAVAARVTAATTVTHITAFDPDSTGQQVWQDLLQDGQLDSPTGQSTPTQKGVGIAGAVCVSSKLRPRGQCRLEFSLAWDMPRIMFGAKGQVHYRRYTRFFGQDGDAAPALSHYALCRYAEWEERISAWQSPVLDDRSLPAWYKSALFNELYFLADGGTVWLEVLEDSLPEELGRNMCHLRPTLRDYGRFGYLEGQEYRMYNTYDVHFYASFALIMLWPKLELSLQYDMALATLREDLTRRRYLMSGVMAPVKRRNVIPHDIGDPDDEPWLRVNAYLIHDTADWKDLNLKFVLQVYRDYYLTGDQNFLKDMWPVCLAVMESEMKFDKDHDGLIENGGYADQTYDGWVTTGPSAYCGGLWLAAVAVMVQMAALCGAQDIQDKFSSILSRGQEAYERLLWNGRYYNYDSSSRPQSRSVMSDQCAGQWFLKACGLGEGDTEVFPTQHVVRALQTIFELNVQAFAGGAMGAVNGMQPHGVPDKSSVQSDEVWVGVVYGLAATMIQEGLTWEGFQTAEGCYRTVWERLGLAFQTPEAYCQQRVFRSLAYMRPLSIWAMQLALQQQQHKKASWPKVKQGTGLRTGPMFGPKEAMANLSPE
Text: In some embodiments, one or more of the compounds according to the invention may specifically bind a GBA2. In alternative embodiments, one or more of the compounds according to the invention may specifically bind the active site of a GBA2. […] In alternative embodiments, one or more of the compounds according to the invention may specifically bind the human non-lysosomal glucosylceramidase (GBA2) over the human lysosomal glucosylceramidase (GCase) and/or the human cytosolic glucosylceramidase (GBA3). In alternative embodiments, one or more of the compounds according to the invention may specifically bind the human non-lysosomal glucosylceramidase (GBA2) over the human glucosylceramide synthase (GCS). In alternative embodiments, one or more of the compounds according to the invention may specifically bind the human non-lysosomal glucosylceramidase (GBA2) over an intestinal alpha-glucosidase, where the intestinal alpha-glucosidase may be a sucrase-isomaltase or a maltase-glucoamylase.

[2] = molecular target: T1, GBA2; test: Determination of IC50 values for inhibition of GBA2 in cell lysate; format: biochemical; design: host or cells: HEK293T (lentiviral transduction, puromycin selection); used as cellular homogenate
Procedure, shortened: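 Homogenate of HEK293T cells stably overexpressing human GBA2 (0.083 mg/mL final), pretreated with 20 μM GCase inhibitor, preincubated 5 min at 37 °C with compound, then reacted 20 min with 250 μM 4-methylumbelliferyl-β-D-glucopyranoside at pH 5.5 (citrate-phosphate, 1% C10E6). Fluorescence read at 365/450 nm after alkaline stop; IC50 from log-inhibitor curve fit.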

[3] = cellular homogenate of HEK293T cells overexpressing human GBA2, 250 μM 4-methylumbelliferone-β-D glucopyranoside, pH 5.5, 37° C., GCase inhibitor present, read-out: GBA2 IC50

SMILES | binding specificity (IC50 or Ki of other molecule / GBA2) [1] | IC50 [2, 3] [nM] | IC50 [2] [nM]
CCCCOc1cc(F)c(CCN2C[C@H](O)[C@@H](O)[C@H](O)[C@H]2C)c(F)c1 [Example 59, (2R,3R,4R,5S)-1-(4-butoxy-2,6-difluorophenethyl)-2-methylpiperidine-3,4,5-triol] | enhanced binding specificity | – | < 100
C[C@@H]1[C@@H](O)[C@H](O)[C@@H](O)CN1CCc1c(F)cc(OCC2CC2)cc1F [Example 60, (2R,3R,4R,5S)-1-(4-(cyclopropylmethoxy)-2,6-difluorophenethyl)-2-methylpiperidine-3,4,5-triol] | enhanced binding specificity | – | < 100
C[C@@H]1[C@@H](O)[C@H](O)[C@@H](O)CN1CCc1cc2c(cc1F)OCO2 [Example 71, (2R,3R,4R,5S)-1-(2-(6-fluorobenzo[d][1,3]dioxol-5-yl)ethyl)-2-methylpiperidine-3,4,5-triol] | enhanced binding specificity | – | < 100
C[C@@H]1[C@@H](O)[C@H](O)[C@@H](O)CN1CCc1ccc2c(c1)OCCO2 [Example 73, (2R,3R,4R,5S)-1-(2-(2,3-dihydrobenzo[b][1,4]dioxin-6-yl)ethyl)-2-methylpiperidine-3,4,5-triol] | enhanced binding specificity | – | < 100
C[C@@H]1[C@@H](O)[C@H](O)[C@@H](O)CN1C[C@H]1CCN(c2cccc(C(F)(F)F)n2)C1 [Example 119, (2R,3R,4R,5S)-2-methyl-1-(((R)-1-(6-(trifluoromethyl)pyridin-2-yl)pyrrolidin-3-yl)methyl)piperidine-3,4,5-triol] | enhanced binding specificity | < 100 | –
C[C@@H]1[C@@H](O)[C@H](O)[C@@H](O)CN1C[C@H]1CCN(c2ncccc2C(F)(F)F)C1 [Example 120, (2R,3R,4R,5S)-2-methyl-1-(((R)-1-(3-(trifluoromethyl)pyridin-2-yl)pyrrolidin-3-yl)methyl)piperidine-3,4,5-triol] | enhanced binding specificity | < 100 | –
C[C@@H]1[C@@H](O)[C@H](O)[C@@H](O)CN1C[C@H]1CCN(c2cccc3scnc23)C1 [Example 129, (2R,3R,4R,5S)-1-(((R)-1-(benzo[d]thiazol-4-yl)pyrrolidin-3-yl)methyl)-2-methylpiperidine-3,4,5-triol] | enhanced binding specificity | < 100 | –
C[C@@H]1[C@@H](O)[C@H](O)[C@@H](O)CN1C[C@@H]1CCN(c2ccccc2C(F)(F)F)C1 [Example 131, (2R,3R,4R,5S)-2-methyl-1-(((S)-1-(2-(trifluoromethyl)phenyl)pyrrolidin-3-yl)methyl)piperidine-3,4,5-triol] | enhanced binding specificity | < 100 | –
Cc1ccccc1N1CCC[C@H](CN2C[C@H](O)[C@@H](O)[C@H](O)[C@H]2C)C1 [Example 136, (2R,3R,4R,5S)-2-methyl-1-(((R)-1-(o-tolyl)piperidin-3-yl)methyl)piperidine-3,4,5-triol] | enhanced binding specificity | < 100 | –
C[C@@H]1[C@@H](O)[C@H](O)[C@@H](O)CN1C[C@H]1CCCN(c2ccccc2F)C1 [Example 137, (2R,3R,4R,5S)-1-(((R)-1-(2-fluorophenyl)piperidin-3-yl)methyl)-2-methylpiperidine-3,4,5-triol] | enhanced binding specificity | < 100 | –
C[C@@H]1[C@@H](O)[C@H](O)[C@@H](O)CN1C[C@H]1CCCN(c2ncccc2C(F)(F)F)C1 [Example 138, (2R,3R,4R,5S)-2-methyl-1-(((R)-1-(3-(trifluoromethyl)pyridin-2-yl)piperidin-3-yl)methyl)piperidine-3,4,5-triol] | enhanced binding specificity | < 100 | –
C[C@@H]1[C@@H](O)[C@H](O)[C@@H](O)CN1C[C@H]1CCCN(c2cccc(C(F)(F)F)n2)C1 [Example 139, (2R,3R,4R,5S)-2-methyl-1-(((R)-1-(6-(trifluoromethyl)pyridin-2-yl)piperidin-3-yl)methyl)piperidine-3,4,5-triol] | enhanced binding specificity | < 100 | –
C[C@@H]1[C@@H](O)[C@H](O)[C@@H](O)CN1C[C@H]1CCCN(c2cnccc2C(F)(F)F)C1 [Example 140, (2R,3R,4R,5S)-2-methyl-1-(((R)-1-(4-(trifluoromethyl)pyridin-3-yl)piperidin-3-yl)methyl)piperidine-3,4,5-triol] | enhanced binding specificity | < 100 | –
C[C@@H]1[C@@H](O)[C@H](O)[C@@H](O)CN1C[C@@H]1CCCN(c2ncccc2C(F)(F)F)C1 [Example 141, (2R,3R,4R,5S)-2-methyl-1-(((S)-1-(3-(trifluoromethyl)pyridin-2-yl)piperidin-3-yl)methyl)piperidine-3,4,5-triol] | enhanced binding specificity | < 100 | –

Second part, led by results:

binding specificity (IC50 or Ki of other molecule / GBA2) [1] | IC50 [2, 3] [nM] | SMILES | IC50 [2] [nM]
enhanced binding specificity | < 100 | C[C@@H]1[C@@H](O)[C@H](O)[C@@H](O)CN1CCc1c(F)cc(N2CCOCC2)cc1F [Example 58, (2R,3R,4R,5S)-1-(2,6-difluoro-4-morpholinophenethyl)-2-methylpiperidine-3,4,5-triol] | –
enhanced binding specificity | < 100 | Cc1ccccc1N1CC[C@H](CN2C[C@H](O)[C@@H](O)[C@H](O)[C@H]2C)C1 [Example 114, (2R,3R,4R,5S)-2-methyl-1-(((R)-1-(o-tolyl)pyrrolidin-3-yl)methyl)piperidine-3,4,5-triol] | –
enhanced binding specificity | < 100 | C[C@@H]1[C@@H](O)[C@H](O)[C@@H](O)CN1C[C@H]1CCN(c2ccccc2C(F)(F)F)C1 [Example 115, (2R,3R,4R,5S)-2-methyl-1-(((R)-1-(2-(trifluoromethyl)phenyl)pyrrolidin-3-yl)methyl)piperidine-3,4,5-triol] | –
enhanced binding specificity | < 100 | C[C@@H]1[C@@H](O)[C@H](O)[C@@H](O)CN1C[C@H]1CCN(c2ccccc2F)C1 [Example 116, (2R,3R,4R,5S)-1-(((R)-1-(2-fluorophenyl)pyrrolidin-3-yl)methyl)-2-methylpiperidine-3,4,5-triol] | –
enhanced binding specificity | < 100 | C[C@@H]1[C@@H](O)[C@H](O)[C@@H](O)CN1C[C@H]1CCN(c2cccc(F)c2)C1 [Example 117, (2R,3R,4R,5S)-1-(((R)-1-(3-fluorophenyl)pyrrolidin-3-yl)methyl)-2-methylpiperidine-3,4,5-triol] | –
enhanced binding specificity | < 100 | C[C@@H]1[C@@H](O)[C@H](O)[C@@H](O)CN1C[C@H]1CCN(c2ccccc2OC(F)(F)F)C1 [Example 118, (2R,3R,4R,5S)-2-methyl-1-(((R)-1-(2-(trifluoromethoxy)phenyl)pyrrolidin-3-yl)methyl)piperidine-3,4,5-triol] | –
